Measured values: article PMC5471912, “Integrated metabolome and transcriptome analysis of Magnolia champaca identifies biosynthetic pathways for floral volatile organic compounds” (BMC Genomics, 2017)

Molecular target: T1, McTPS1 (Magnolia champaca, UniProt A0A1Y0BW36)
T1 construct: gene TPS1; full-length ORF (plastid transit peptide apparently kept), N-terminal 6His tag (pDEST17), E. coli BL21 pLysS, Ni-NTA purified
T1 sequence (A0A1Y0BW36 1-581): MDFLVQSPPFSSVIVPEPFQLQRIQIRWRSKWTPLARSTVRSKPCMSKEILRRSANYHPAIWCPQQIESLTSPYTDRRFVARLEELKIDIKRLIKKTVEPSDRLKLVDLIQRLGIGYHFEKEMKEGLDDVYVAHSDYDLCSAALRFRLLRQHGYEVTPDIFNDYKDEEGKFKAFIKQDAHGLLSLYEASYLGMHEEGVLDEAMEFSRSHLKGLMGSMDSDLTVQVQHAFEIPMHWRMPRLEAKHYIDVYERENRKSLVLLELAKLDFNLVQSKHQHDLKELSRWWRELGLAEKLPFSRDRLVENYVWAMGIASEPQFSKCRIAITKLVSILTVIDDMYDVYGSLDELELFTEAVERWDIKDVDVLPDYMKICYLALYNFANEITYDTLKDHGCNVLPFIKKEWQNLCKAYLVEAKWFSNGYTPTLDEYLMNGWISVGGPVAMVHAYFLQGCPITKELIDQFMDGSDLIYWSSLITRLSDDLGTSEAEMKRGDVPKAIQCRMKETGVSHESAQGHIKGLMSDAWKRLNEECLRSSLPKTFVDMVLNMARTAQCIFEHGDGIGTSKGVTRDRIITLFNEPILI
Assay: in vitro TPS assay, chiral phase GC-MS
Type: biochemical
Settings: 25 mM HEPES pH 7.4, 100 mM KCl, 7.5 mM MgCl2, 5 mM DTT (1X of the 2X buffer), 30 °C, 2 h

Row | Compound | in vitro TPS assay, chiral phase GC-MS (from GPP) | in vitro TPS assay, chiral phase GC-MS
1 | C=C[C@](C)(O)CCC=C(C)C [(R)-linalool] | our in vitro assays identified McTPS1 as the (R)-linalool synthase | 
2 | CC(C)=CCC/C(C)=C/COP(=O)(O)OP(=O)(O)O [geranyl diphosphate] |  | McTPS1 reacted with GPP to produce (R)-linalool, a monoterpene alcohol
